Measured values from ChEMBL document CHEMBL1201862, “PubChem BioAssay data set” (2004).
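Dose response: 5 concentrations. Exposure: 48 h. Format: 96-well plates. Endpoint: linear interpolation; highest concentration if not reached. GI50 is the concentration that inhibits growth by half.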 Activity calls are given as the source filed them. Rule as the data show it: active = GI50 up to about 1.1 µM and inactive = higher.

Tests used:
Test in all cases: NCI anticancer screen, dose series, 48 h
[1] = tested on: NCI-H226
[2] = tested on: SW-620
[3] = tested on: SNB-19
[4] = tested on: T47D
[5] = tested on: BT-549
[6] = tested on: SK-OV-3
[7] = tested on: OVCAR-4
[8] = tested on: OVCAR-8
[9] = tested on: Hs-578T
[10] = tested on: EKVX
[11] = tested on: PC-3
[12] = tested on: A498
[13] = tested on: 786-0
[14] = tested on: NCI-H522
[15] = tested on: CCRF-CEM
[16] = tested on: HCT-116
[17] = tested on: RXF 393
[18] = tested on: MDA-MB-231
[19] = tested on: SN12C
[20] = tested on: U-251
[21] = tested on: IGROV-1
[22] = tested on: SK-MEL-2
[23] = tested on: CAKI-1
[24] = tested on: RPMI-8226
[25] = tested on: SF-268
[26] = tested on: HCT-15
[27] = tested on: UACC-257
[28] = tested on: MDA-MB-435
[29] = tested on: ACHN
[30] = tested on: UACC-62
[31] = tested on: OVCAR-5
[32] = tested on: SF-539
[33] = tested on: A549
[34] = tested on: HL-60
[35] = tested on: NCI/ADR-RES
[36] = tested on: M14
[37] = tested on: MCF7
[38] = tested on: HCC 2998
[39] = tested on: SR
[40] = tested on: SNB-75
[41] = tested on: KM12
[42] = tested on: MOLT-4
[43] = tested on: COLO 205
[44] = tested on: SK-MEL-5
[45] = tested on: NCI-H460
[46] = tested on: DU-145
[47] = tested on: OVCAR-3
[48] = tested on: SK-MEL-28
[49] = tested on: K562
[50] = tested on: UO-31
[51] = tested on: HT-29
[52] = tested on: NCI-H23
[53] = tested on: HOP-92
[54] = tested on: HOP-62
[55] = tested on: SF-295
[56] = tested on: TK-10

In the case of `NCCCCN(CCCN)C(=O)OCc1ccccc1`, the GI50 [1] is reported as > 100 µM (inactive), the GI50 [2] is reported as > 100 µM (inactive) and the GI50 [3] is reported as > 100 µM (inactive). For the same compound, the GI50 [4] was > 100 µM (inactive), the GI50 [5] was > 100 µM (inactive) and the GI50 [6] was > 100 µM (inactive). The GI50 [7] was > 100 µM (inactive), the GI50 [8] was > 100 µM (inactive) and the GI50 [9] was > 100 µM (inactive). The GI50 [10] was > 100 µM (inactive), the GI50 [11] was > 100 µM (inactive) and the GI50 [12] was > 100 µM (inactive). The GI50 [13] was > 100 µM (inactive), the GI50 [14] was > 100 µM (inactive) and the GI50 [15] was > 100 µM (inactive). The GI50 [16] was > 100 µM (inactive), the GI50 [17] was > 100 µM (inactive) and the GI50 [18] was > 100 µM (inactive). For the same compound, the GI50 [19] was > 100 µM (inactive), the GI50 [20] was > 100 µM (inactive) and the GI50 [21] was > 100 µM (inactive). The GI50 [22] was > 100 µM (inactive), the GI50 [23] was > 100 µM (inactive) and the GI50 [24] was > 100 µM (inactive). The GI50 [25] was > 100 µM (inactive), the GI50 [26] was > 100 µM and the GI50 [27] was > 100 µM (inactive). For the same compound, the GI50 [28] was > 100 µM (inactive), the GI50 [29] was > 100 µM (inactive) and the GI50 [30] was > 100 µM (inactive). For the same compound, the GI50 [31] was > 100 µM (inactive), the GI50 [32] was > 100 µM (inactive) and the GI50 [33] was > 100 µM (inactive). The GI50 [34] was > 100 µM (inactive), the GI50 [35] was > 100 µM (inactive) and the GI50 [36] was > 100 µM (inactive). The GI50 [37] was > 100 µM (inactive), the GI50 [38] was > 100 µM (inactive) and the GI50 [39] was > 100 µM (inactive). For the same compound, the GI50 [40] was > 100 µM (inactive), the GI50 [41] was > 100 µM (inactive) and the GI50 [42] was > 100 µM (inactive). The GI50 [43] was > 100 µM (inactive), the GI50 [44] was > 100 µM (inactive) and the GI50 [45] was > 100 µM (inactive). For the same compound, the GI50 [46] was > 100 µM (inactive), the GI50 [47] was > 100 µM (inactive) and the GI50 [48] was > 100 µM (inactive). For the same compound, the GI50 [49] was > 100 µM (inactive), the GI50 [50] was > 100 µM (inactive) and the GI50 [51] was > 100 µM (inactive). For the same compound, the GI50 [52] was > 100 µM (inactive), the GI50 [53] was > 100 µM (inactive) and the GI50 [54] was > 100 µM (inactive). For the same compound, the GI50 [55] was > 100 µM (inactive) and the GI50 [56] was > 100 µM (inactive).
